Measurements: the Kinase Knowledgebase extract (Sharma et al. 2016)
pIC50: −log10 of the molar value.

Assays:
Test in all cases: Enzyme Assay
PIK3CG (human) = PIK3CG (human) (UniProt P48736)
PIK3CB (Human) = PIK3CB (Human) (UniProt P42338)
PIK3CD (Human) = PIK3CD (Human) (UniProt O00329)
Sequence of PIK3CD (Human) (O00329 whole entry, looked up): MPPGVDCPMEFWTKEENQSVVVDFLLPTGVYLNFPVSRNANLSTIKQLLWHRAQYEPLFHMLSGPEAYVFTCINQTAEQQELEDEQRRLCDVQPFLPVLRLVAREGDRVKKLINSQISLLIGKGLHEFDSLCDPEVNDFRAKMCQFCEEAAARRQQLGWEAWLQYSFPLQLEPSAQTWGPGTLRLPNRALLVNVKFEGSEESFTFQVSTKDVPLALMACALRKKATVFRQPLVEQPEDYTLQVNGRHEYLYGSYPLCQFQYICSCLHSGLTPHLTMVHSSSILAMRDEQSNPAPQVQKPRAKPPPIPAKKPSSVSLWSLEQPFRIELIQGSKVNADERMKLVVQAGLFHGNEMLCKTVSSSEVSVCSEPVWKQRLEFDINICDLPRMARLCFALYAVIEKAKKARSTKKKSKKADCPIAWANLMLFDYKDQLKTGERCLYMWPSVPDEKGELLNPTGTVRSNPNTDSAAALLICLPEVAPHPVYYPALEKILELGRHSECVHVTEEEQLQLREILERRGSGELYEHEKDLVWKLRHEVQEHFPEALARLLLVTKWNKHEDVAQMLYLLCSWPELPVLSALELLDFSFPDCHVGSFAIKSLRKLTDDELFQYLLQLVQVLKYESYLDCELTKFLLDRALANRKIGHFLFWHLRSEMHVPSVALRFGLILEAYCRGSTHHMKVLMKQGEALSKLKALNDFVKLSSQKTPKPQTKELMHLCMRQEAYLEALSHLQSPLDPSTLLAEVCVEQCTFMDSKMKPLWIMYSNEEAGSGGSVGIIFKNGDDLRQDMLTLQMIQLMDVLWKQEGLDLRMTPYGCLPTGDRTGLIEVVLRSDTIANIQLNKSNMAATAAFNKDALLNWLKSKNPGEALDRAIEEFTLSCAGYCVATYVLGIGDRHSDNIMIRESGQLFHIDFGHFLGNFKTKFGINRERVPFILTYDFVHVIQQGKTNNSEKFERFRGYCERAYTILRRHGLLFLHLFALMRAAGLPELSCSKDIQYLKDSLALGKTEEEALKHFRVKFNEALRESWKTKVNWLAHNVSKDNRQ

Sequence of PIK3CG (human) (P48736 whole entry, looked up): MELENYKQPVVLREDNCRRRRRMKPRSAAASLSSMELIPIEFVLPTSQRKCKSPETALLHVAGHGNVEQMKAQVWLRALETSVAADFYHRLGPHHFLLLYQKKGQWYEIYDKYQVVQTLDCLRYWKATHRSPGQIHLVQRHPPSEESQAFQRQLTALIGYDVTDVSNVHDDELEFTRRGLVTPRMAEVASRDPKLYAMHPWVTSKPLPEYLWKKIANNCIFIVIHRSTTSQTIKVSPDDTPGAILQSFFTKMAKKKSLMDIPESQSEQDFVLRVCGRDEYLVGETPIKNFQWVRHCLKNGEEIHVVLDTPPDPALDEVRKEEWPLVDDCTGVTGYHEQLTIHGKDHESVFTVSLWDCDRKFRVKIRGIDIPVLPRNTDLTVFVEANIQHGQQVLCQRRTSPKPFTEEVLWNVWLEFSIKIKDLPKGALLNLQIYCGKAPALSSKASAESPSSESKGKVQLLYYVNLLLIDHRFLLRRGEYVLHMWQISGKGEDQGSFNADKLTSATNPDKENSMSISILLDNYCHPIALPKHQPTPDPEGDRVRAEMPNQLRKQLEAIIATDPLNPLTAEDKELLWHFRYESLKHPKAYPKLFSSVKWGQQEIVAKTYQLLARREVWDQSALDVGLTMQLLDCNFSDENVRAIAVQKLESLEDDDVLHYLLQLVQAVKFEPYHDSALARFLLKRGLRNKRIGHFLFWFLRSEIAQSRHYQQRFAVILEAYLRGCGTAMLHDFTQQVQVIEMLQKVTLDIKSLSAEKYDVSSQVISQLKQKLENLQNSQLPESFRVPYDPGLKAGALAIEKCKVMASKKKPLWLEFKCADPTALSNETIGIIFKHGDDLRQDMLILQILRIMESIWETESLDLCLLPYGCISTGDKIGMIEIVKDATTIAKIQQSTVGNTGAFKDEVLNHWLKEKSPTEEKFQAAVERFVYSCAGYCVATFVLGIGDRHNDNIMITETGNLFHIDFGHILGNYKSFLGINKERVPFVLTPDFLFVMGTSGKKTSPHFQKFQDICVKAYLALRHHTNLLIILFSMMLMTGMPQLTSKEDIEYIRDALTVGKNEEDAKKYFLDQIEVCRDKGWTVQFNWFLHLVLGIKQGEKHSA
Sequence of PIK3CB (Human) (P42338 whole entry, looked up): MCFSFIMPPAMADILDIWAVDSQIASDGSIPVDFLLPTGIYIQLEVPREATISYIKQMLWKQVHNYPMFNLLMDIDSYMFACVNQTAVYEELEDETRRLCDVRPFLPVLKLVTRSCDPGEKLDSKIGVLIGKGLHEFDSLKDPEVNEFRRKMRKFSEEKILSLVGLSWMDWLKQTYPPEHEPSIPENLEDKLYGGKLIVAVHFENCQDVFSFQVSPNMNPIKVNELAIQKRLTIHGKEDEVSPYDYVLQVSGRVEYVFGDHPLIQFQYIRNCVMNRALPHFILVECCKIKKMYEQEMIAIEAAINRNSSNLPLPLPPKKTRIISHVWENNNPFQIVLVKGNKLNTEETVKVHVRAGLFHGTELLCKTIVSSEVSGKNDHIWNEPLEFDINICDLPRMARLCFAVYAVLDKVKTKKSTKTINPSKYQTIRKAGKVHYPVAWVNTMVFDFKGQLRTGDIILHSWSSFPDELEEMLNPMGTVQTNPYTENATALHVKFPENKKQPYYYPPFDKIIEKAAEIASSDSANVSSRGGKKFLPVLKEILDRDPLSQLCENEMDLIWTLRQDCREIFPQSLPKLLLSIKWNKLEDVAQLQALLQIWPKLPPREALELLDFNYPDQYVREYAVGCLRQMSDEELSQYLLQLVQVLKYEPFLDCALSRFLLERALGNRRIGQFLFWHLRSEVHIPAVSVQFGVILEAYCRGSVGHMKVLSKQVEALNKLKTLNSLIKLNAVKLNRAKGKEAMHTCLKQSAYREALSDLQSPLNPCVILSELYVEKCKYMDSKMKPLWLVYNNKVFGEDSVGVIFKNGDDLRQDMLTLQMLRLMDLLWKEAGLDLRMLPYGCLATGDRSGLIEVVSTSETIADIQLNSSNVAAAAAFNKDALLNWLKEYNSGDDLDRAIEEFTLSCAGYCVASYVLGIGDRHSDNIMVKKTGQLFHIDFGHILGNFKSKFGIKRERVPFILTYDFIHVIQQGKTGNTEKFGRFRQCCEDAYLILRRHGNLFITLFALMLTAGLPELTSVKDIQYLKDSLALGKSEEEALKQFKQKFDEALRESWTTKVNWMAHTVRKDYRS

Row | SMILES | pIC50 (PIK3CG (human)) | pIC50 (PIK3CB (Human)) | pIC50 (PIK3CD (Human))
1 | C[C@H](Nc1ncnc(N)c1C#N)c1nc2cccc(Cl)c2c(=O)n1CCCN1CCN(C)CC1 | ≤ 5.00 |  | 
2 | C[C@H](Nc1ncnc(N)c1C#N)c1nc2cccc(Cl)c2c(=O)n1CCC(C)(C)N | ≤ 5.00 |  | 
3 | C[C@H](NC(=O)c1nccnc1N)c1nc2cccc(Cl)c2c(=O)n1CCCN | ≤ 5.00 |  | 
4 | COCCCn1c([C@H](C)Nc2ncnc(N)c2C#N)nc2c(F)ccc(F)c2c1=O | ≤ 5.00 |  | 
5 | Cc1cccc2nc([C@H](C)Nc3ncnc(N)c3C#N)n(CCCN)c(=O)c12 | ≤ 5.00 |  | 
6 | C[C@H](Nc1ncnc(N)c1C#N)c1nc2cccc(Cl)c2c(=O)n1N(CCN)Cc1ccccc1 | ≤ 5.00 |  | 
7 | N#Cc1c(N)ncnc1N[C@H](c1nc2cccc(Cl)c2c(=O)n1CCCN)C1CC1 | ≤ 5.00 |  | 
8 | CC(CN)Cn1c([C@H](C)Nc2ncnc(N)c2C#N)nc2cccc(Cl)c2c1=O (stereo not given in full) | ≤ 5.00 |  | 
9 | C[C@H](Nc1ncnc(N)c1C#N)c1nc2cccc(Cl)c2c(=O)n1CCCN(C)C | ≤ 5.00 |  | 
10 | C[C@H](Nc1ncnc(N)c1C#N)c1nc2cccc(Cl)c2c(=O)n1CCCNCc1ccccc1 | ≤ 5.00 |  | 
11 | NCCCn1c([C@@H](Nc2ncnn3ccnc23)C2CC2)nc2cccc(Cl)c2c1=O | ≤ 5.00 |  | 
12 | CC(C)C[C@H](Nc1ncnc(N)c1C#N)c1nc2cccc(Cl)c2c(=O)n1CCCN | ≤ 5.00 |  | 
13 | C[C@H](Nc1ncnc(N)c1C#N)c1nc2cccc(Cl)c2c(=O)n1CCCCN | ≤ 5.00 |  | 
14 | N#Cc1c(N)nc(N)nc1N[C@@H](c1ccccc1)c1nc2cccc(Cl)c2c(=O)n1CCCN | ≤ 5.00 |  | 
15 | C[C@H](Nc1ncnc(N)c1C#N)c1nc2cccc(Cl)c2c(=O)n1CC1CCCCN1 (stereo not given in full) | ≤ 5.00 |  | 
16 | C[C@H](Nc1ncnc(N)c1C#N)c1nc2cccc(Cl)c2c(=O)n1[C@H]1C[C@H](N)C1 | ≤ 5.00 |  | 
17 | C[C@H](Nc1ncnc(N)c1Cl)c1nc2cccc(Cl)c2c(=O)n1CCCN | ≤ 5.00 |  | 
18 | C[C@H](Nc1nc(N)nc(N)c1C#N)c1nc2cccc(Cl)c2c(=O)n1C[C@@H]1CCCNC1 | 5.89 | 7.10 | 8.52
19 | CC(CN)n1c([C@H](C)Nc2ncnc(N)c2C#N)nc2cccc(Cl)c2c1=O (stereo not given in full) | ≤ 5.00 |  | 
20 | C[C@H](Nc1ncnc(N)c1C#N)c1nc2cccc(Cl)c2c(=O)n1CC1CCNCC1 | ≤ 5.00 |  | 
21 | C[C@H](Nc1ncnc(N)c1C#N)c1nc2cccc(Cl)c2c(=O)n1CCN1CCN(C)CC1 | ≤ 5.00 | 6.47 | 7.96
22 | C[C@H](Nc1ncnc2[nH]cnc12)c1nc2cccc(Cl)c2c(=O)n1CCCN1CCOCC1 | ≤ 5.00 |  | 
23 | C[C@H](Nc1nc(N)nc(N)c1C#N)c1nc2cccc(Cl)c2c(=O)n1CCN1CCCC1 | ≤ 5.00 |  | 
24 | C[C@H](Nc1ncnc(N)c1C#N)c1nc2cccc(Cl)c2c(=O)n1CCN | ≤ 5.00 |  | 
25 | C[C@H](Nc1ncnn2ccnc12)c1nc2cccc(Cl)c2c(=O)n1CCCN | ≤ 5.00 |  | 

The next lines start with the values.

Row | pIC50 (PIK3CG (human)) | pIC50 (PIK3CB (Human)) | pIC50 (PIK3CD (Human)) | SMILES
26 | ≤ 5.00 |  |  | C[C@H](Nc1ncnc(N)c1C#N)c1nc2cccc(Cl)c2c(=O)n1CCCN1CCCCC1
27 | ≤ 5.00 |  |  | C[C@H](Nc1ncnc(N)c1C#N)c1nc2cccc(Cl)c2c(=O)n1CC1CCCNC1 (stereo not given in full)
28 | ≤ 5.00 |  |  | Nc1nc(N)c(Cl)c(N[C@H](c2nc3c(Cl)ccc(Cl)c3c(=O)n2[C@H]2C[C@@H](O)C2)C2CC2)n1
29 | ≤ 5.00 |  |  | C[C@H](Nc1ncnc(N)c1C#N)c1nc2cccc(Cl)c2c(=O)n1C[C@@H](O)CO
30 | ≤ 5.00 |  |  | C[C@H](Nc1ncnc(N)c1C#N)c1nc2cccc(Cl)c2c(=O)n1CC1CCCN1 (stereo not given in full)
31 | 5.49 | 7.06 | 8.70 | C[C@H](Nc1nc(N)nc(N)c1C#N)c1nc2cccc(Cl)c2c(=O)n1C[C@H]1CCCNC1
32 | ≤ 5.00 |  |  | C[C@H](Nc1nc(N)nc(N)c1Cl)c1nc2cccc(Cl)c2c(=O)n1CCCN
33 | ≤ 5.00 |  |  | C[C@H](Nc1ncnc(N)c1C#N)c1nc2cccc(Cl)c2c(=O)n1N(C)CCN
34 | ≤ 5.00 |  |  | CC(CCN)n1c([C@H](C)Nc2ncnc(N)c2C#N)nc2cccc(Cl)c2c1=O (stereo not given in full)
35 | ≤ 5.00 |  |  | NCCCn1c([C@@H](Nc2nc(N)nc(N)c2Cl)C2CC2)nc2cccc(Cl)c2c1=O
36 | ≤ 5.00 |  |  | CNCCCn1c([C@H](C)Nc2ncnc(N)c2C#N)nc2cccc(Cl)c2c1=O
37 | ≤ 5.00 |  |  | C[C@H](Nc1ncnc(N)c1C#N)c1nc2cccc(Cl)c2c(=O)n1CCN1CCCC1
38 | ≤ 5.00 |  |  | Cc1ncnc(N[C@@H](C)c2nc3cccc(Cl)c3c(=O)n2CCCN)c1C#N
39 | ≤ 5.00 |  |  | C[C@H](Nc1ncnc(N)c1C#N)c1nc2cccc(Cl)c2c(=O)n1CC1CCNC1 (stereo not given in full)
40 | ≤ 5.00 |  |  | C[C@H](Nc1ncnc2scnc12)c1nc2cccc(Cl)c2c(=O)n1CCC(C)(C)N
41 | ≤ 5.00 |  |  | C[C@H](Nc1nc(N)nc(N)c1C#N)c1nc2cccc(Cl)c2c(=O)n1N(CCN)Cc1ccccc1
42 | ≤ 5.00 |  |  | C[C@H](Nc1ncnc(N)c1C#N)c1nc2cccc(Cl)c2c(=O)n1CC1CNCCO1 (stereo not given in full)
43 | ≤ 5.00 |  |  | CC[C@H](Nc1ncnc(N)c1C#N)c1nc2cccc(Cl)c2c(=O)n1CCCN
44 | < 5.00 |  |  | COCCCn1c([C@H](C)Nc2ncnc(N)c2C#N)nc2c(Cl)ccc(Cl)c2c1=O
